Assay results reported in patent US20090208981A1, “Method for Analysis of Interaction Between Small Molecules and Cells and Apparatus thereof” (priority 2005, published 2009).

System: peripheral blood mononuclear cell (PBMC)
Test: Cell chromatography retention time of drug-treated PBMC on polystyrene column (150 mm×10 mm), detection at 500 nm
Assay type: cell-based
Settings: PBMC treated with 10 μg/ml for 2 minutes; PBS pH 7.4, 1 ml/min; un-treated control about 7.7 minutes; FIG. 3
Description: In this example, the column used for analysis of the interaction between small molecule and cell has an inner diameter of 10 mm, a length of 150 mm and a volume of 11.8 ml (150 mm×10 mm). This column was packed with resin particles (size: 1 or 2 millimeter; material: polystyrene) and was washed first and thereafter, filled with a phosphate buffered saline (PBS).
The method is similar as described as above. Whole Blood was separated first by centrifugation using dextran cell separation medium (Ficoll) to yield peripheral blood mononuclear cell (PBMC). Then PBMC was diluted with phosphate buffered saline (PBS) into a cell suspension at concentration of 1×10^6 cells/ml.
Lectin: treated PBMC by 10 μg/ml lectin for two minutes;
Shikonin: treated PBMC by 10 μg/ml shikonin for two minutes.
The cell suspension was added with lectin or shikonin at a concentration of 10 μg/ml (lectin treated group or shikonin treated group). After reacting for 2 minutes, drug-treaded group or un-treated group (control) was loaded on the upper frontier of the column (150 mm×10 mm) respectively, and after adding PBS (pH 7.4) to a level of a pre-determined height, the column was eluted with PBS (pH 7.4) at a steady flow rate of 1 ml/min provided under the action of a pump and integrated with a spectrophotometer, which eluted cells were continuously detected with a wavelength of 500 nm. […]

CC(C)=CC[C@@H](O)C1=CC(=O)c2c(O)ccc(O)c2C1=O [shikonin]
retention time of treated cell in the column: 6.5 min
